Patent publication US20100311661A1, “USE OF COMPOUNDS DERIVED FROM CYCLOHEXIMIDE FOR THE TREATMENT OR PREVENTION OF, IN PARTICULAR, ISCHAEMIAS AND CARDIOPATHIES” (Max Planck Gesellschaft Zur Forderung Der Wissenschaften …, priority 2007, published 2010)

Assays:
liver cells of rats = conditions: cited from earlier work
retinal ganglion cells = conditions: in vivo; cited from earlier work
brain lesions = conditions: photothrombotic in vivo model in rats; cited from earlier work
adult cardiomyocytes = experiment: Adult cardiomyocytes under hypoxia and subsequent reoxygenation; apoptosis by Guava ViaCount assay; conditions: 18 hours hypoxia, 24 hours normoxic; DM-CHX greater than 1 μM; p<0.05
[1] = test system: Hearts of 9-week-old male rats; parameters: species or system rats (Sprague-Dawley)

CC1CC(C)C(=O)C(C(O)CC2CC(=O)NC(=O)C2)C1 (centres unmarked) [CHX, 4-[2-(3,5-dimethyl-2-oxocyclohexyl)-2-hydroxy-ethyl]-2,6-piperidindione]
protection against cell death (liver cells of rats): protective property of CHX against cell death has also been demonstrated | cell death caused by axotomy (retinal ganglion cells): inhibits cell death caused by axotomy | brain lesions triggered by radiation (brain lesions): reduces brain lesions

C[C@@H]1C[C@@H]([C@H](O)CC2CC(=O)N(CC(=O)N(C)C)C(=O)C2)C(=O)[C@@H](C)C1 [DM-CHX]
influence on apoptosis (adult cardiomyocytes): statistically significant influence | size of the infarct, qualitative (TTC colouring, visual) [1]: serious difference in colouring
